Source: PubChem BioAssay AID1159585 (Gregory J. Crowther, 2016)

target: Calcium-dependent protein kinase 1 (Plasmodium falciparum (isolate 3D7)) (UniProt P62344); assay: PfCDPK1 kinase inhibitors, biochemical, TCAMS library (AID 1159585); settings: recombinant PfCDPK1, Kinase-Glo ATP depletion luminescence;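 further: inhibitors leave more ATP so luminescence rises with inhibition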
Sequence (P62344 whole entry, looked up): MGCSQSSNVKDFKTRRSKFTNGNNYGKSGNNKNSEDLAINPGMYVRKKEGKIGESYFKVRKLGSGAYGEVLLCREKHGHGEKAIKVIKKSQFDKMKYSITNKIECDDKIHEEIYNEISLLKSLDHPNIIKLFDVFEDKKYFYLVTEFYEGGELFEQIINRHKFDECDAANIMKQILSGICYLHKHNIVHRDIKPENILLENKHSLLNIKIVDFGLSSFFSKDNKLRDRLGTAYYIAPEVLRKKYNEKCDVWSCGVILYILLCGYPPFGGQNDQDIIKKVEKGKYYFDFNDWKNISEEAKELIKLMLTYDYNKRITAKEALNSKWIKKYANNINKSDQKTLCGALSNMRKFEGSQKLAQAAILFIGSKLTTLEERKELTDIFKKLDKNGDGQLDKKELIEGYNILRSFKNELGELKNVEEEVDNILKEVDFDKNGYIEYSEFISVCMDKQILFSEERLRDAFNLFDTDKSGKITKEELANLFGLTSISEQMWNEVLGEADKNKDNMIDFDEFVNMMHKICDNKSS

Structure (SMILES)	IC50 [nM]
O=C(NCCN1CCCC1)c1cccc(Nc2nccc(Nc3ccc(Oc4ccccc4)cc3)n2)c1	213
CN(C)CCNCc1nc(-c2ccc3c(Nc4ccc(Oc5ccccc5)cc4)ccnc3c2)cs1	887
CC(C)(CNC(=O)[C@H]1CCCN1)c1nc(-c2ccc(Cl)c(O)c2)c(-c2ccncc2)[nH]1	179
COCCNCc1cccc(-c2ccc3c(Nc4ccc(Oc5cccnc5)cc4)ccnc3c2)c1	913
CC(C)(CNC(=O)C1CCN(CCOCc2ccccc2)CC1)c1nc(-c2ccc(Cl)c(O)c2)c(-c2ccncc2)[nH]1	734
CC(C)(CNCc1ccc(C(F)(F)F)cc1)c1nc(-c2ccc(Cl)c(O)c2)c(-c2ccnc(N)n2)[nH]1	353
CS(=O)(=O)CCNCc1cccc(-c2ccc3c(Nc4cc(O)c(Cl)cc4F)ccnc3c2)c1	71
Oc1cc(Nc2ccnc3cc(I)ccc23)c(F)cc1Cl	282
NS(=O)(=O)c1cccc(Nc2nc(N[C@@H]3CCNC3)nc3cc[nH]c(=O)c23)c1	83

More lines, in order of falling IC50, values ahead:

IC50 [nM]	Structure (SMILES)
513	CN(C)Cc1ccc(-c2ccc3c(Nc4ccc(Oc5ccccn5)cc4)ccnc3c2)o1
257	CC(C)(CNCc1ccc(Cl)cc1)c1nc(-c2ccc(Cl)c(O)c2)c(-c2ccncc2)[nH]1
164	O=C(Nc1cccc(-c2nn3ccccc3c2-c2ccnc(Nc3cccc(-c4cnco4)c3)n2)c1)C1CCCCC1
60	COc1cc(Nc2nccc(-c3c(-c4cccc(NC(=O)c5c(F)cccc5F)c4)nn4ccccc34)n2)cc(OC)c1OC
20	CS(=O)(=O)Cc1ccc(Nc2nccc(-c3c(-c4cccc(NC(=O)c5c(F)cccc5F)c4)nn4ccccc34)n2)cc1
